According to US20100249138A1, “MPZP: A SMALL MOLECULE CORTICOTROPIN-RELEASING FACTOR TYPE 1 RECEPTOR (CRF1) ANTOGONIST” (priority 2007, published 2010):
“Also recorded” adds a separate entry of the source.

Experiments:
[1] = cited from earlier work
[2] = tested on: cocaine self-administration; assay: Cocaine self-administration in short access (ShA) and long access (LgA) rats; format: in vivo, rat
[3] = cLogP, Advanced Chemistry Development Software Solaris V4.67; details: from cLogP
[4] = in vivo; cited from earlier work
[5] = tested on: defensive withdrawal behavior; details: 20 mg/kg i.p.; cited from earlier work
[6] = tested on: cocaine self-administration; details: 30 minute pretreatment; limited (2 hour) daily drug access; cited from earlier work
[7] = tested on: intracerebroventricular CRF-induced anxiogenic-like behavior; details: 20 mg/kg i.p.; cited from earlier work
plasma ACTH = details: 20 mg/kg i.p.; cited from earlier work
[8] = tested on: ethanol self-administration; details: cited from earlier work

more hydrophobic than MPZP (fold) [3]: ~30,000 fold
more hydrophobic than MPZP (orders) [3]: approximately 4.5 orders
SMILES: CCCCN(CC)c1nc(C)nc2c1c(C)c(C)n2-c1c(C)cc(C)cc1C.Cl [antalarmin, N-Butyl-N-ethyl-2,5,6-trimethyl-7-(2,4,6-trimethyl-phenyl)-7H-pyrrolol[2,3-d]pyrimidin-4-amine hydrochloride]
aqueous solubility [1]: poor
slope of linear trend dose function on cocaine intake ([2]; LgA rats): −0.32
decrease of cocaine intake compared to vehicle pretreatment ([2]; LgA rats, 25 mg/kg i.p., 80 minutes before 1 hour session): 13.3%
cocaine intake compared with vehicle ([2]; LgA rats, 25 mg/kg i.p., hydrochloride, 25 mg/kg): significant decrease; also recorded: significantly decreased
slope of linear trend dose function on cocaine intake ([2]; ShA rats): 0.01394
cocaine intake compared to vehicle pretreatment ([2]; ShA rats, antalarmin 6.25-25 mg/kg i.p., hydrochloride): no dose significantly altered cocaine intake; also recorded: without significantly altering
bioavailability [4]: low
spontaneous defensive withdrawal behavior [5]: inhibit
dose-response function of cocaine self-administration [6]: did not alter
intracerebroventricular CRF-induced anxiogenic-like behavior in the elevated plus maze [7]: inhibit
CRF-induced increases in plasma ACTH levels (plasma ACTH): blocked
escalated ethanol intake ([8]; ethanol-dependent rats, acute withdrawal, 20 mg/kg i.p.): dose-dependently reduced
ethanol self-administration ([8]; nondependent rats): did not influence
